From PMC4102417 (PLoS Neglected Tropical Diseases, 2014)
pEC50: −log10 of the molar value. Where a name gives a salt, the structure may show the parent alone. Read-outs that look alike come from different tables or passages of the source.

Experiments:
3T3 fibroblast cells = experiment: cells; assay type: cell-based, murine; details: for activity at 10 µM: Mus musculus, NIH3T3, 72 h, read-out: Mammalian (3T3) cell % growth at 10 uM
[1] = test system: T. cruzi (Tulahuen strain); experiment: microbe, parasite or virus in culture; assay type: cell-based, Trypanosoma cruzi; details: for activity at 10 µM / pEC50: Trypanosoma cruzi, TULAHUEN, Fibroblast; for activity at 10 µM: 120 h, read-out: T. cruzi % growth @ 10 uM (Amastigotes); for pEC50: read-out: T. cruzi EC50
Method: Compounds were tested against T. cruzi (Tulahuen strain) stably expressing the beta-galactosidase gene as previously described. […] Fibroblasts were plated at a density of 2×10^3 per well in 96 well tissue culture plates. After 24 hours of incubation, 1×10^4 trypomastigotes/well were added to the fibroblasts and incubated for 4 hours before addition of the test compounds from the Spectrum Collection (10 µM final concentration). Cultures were incubated at 37°C for 5 days, then developed with chlorophenol red β-D-galactopyranoside as previously described. The percent inhibition is reported with standard deviation of the mean. […] Z-prime values were calculated for each 96-well plate based on positive (4 wells) and negative controls (4 wells).

SMILES | activity at 10 µM (3T3 fibroblast cells; 10 uM, Table S2) | activity at 10 µM ([1]; 10 uM, Table S2) | also measured
CC(C)=CCc1c(O)cc2occ(-c3ccc4c(c3)OCO4)c(=O)c2c1O [DERRUBONE] | 75.4% | 22.8% | –
CC(=O)O[C@@H]1CC2C(C)(C)C(=O)CC[C@]2(C)C2CC[C@]3(C)C(=CC(=O)O[C@H]3c3ccoc3)[C@@]21C (some centres unmarked) [DIHYDRODEOXYGEDUNIN] | – | – | Mammalian (3T3) cell % growth at 10 uM (3T3 fibroblast cells; 10 uM, Table S2): 83.8%; T. cruzi % growth @ 10 uM (Amastigotes) ([1]; 10 uM, Table S2): 23.4%
CC(=O)OC1CC2C(C)(C)C(=O)CCC2(C)C2CCC3(C)C(c4ccoc4)OC(=O)C4OC43C12C (centres unmarked) [DIHYDROGEDUNIN, 7-(furan-3-yl)-1,8,12,16,16-pentamethyl-5,15-dioxo-3,6-dioxapentacyclo[9.8.0.0^{2,4}.0^{2,8}.0^{12,17}]nonadecan-19-yl acetate] | 81.4% | 5.8% | –
COc1c(CC(=O)c2cc3c(cc2O)OC(C)(C)C(O)C3)ccc2c1C=CC(C)(C)O2 (centres unmarked) [DIHYDROMUNDULETONE] | 81.3% | 4.4% | –
CC(=O)OC1c2c(ccc3ccc(=O)oc23)OC(C)(C)C1OC(=O)CC(C)C (centres unmarked) [DIHYDROSAMIDIN, 14-(acetyloxy)-12,12-dimethyl-4-oxo-3,11-dioxatricyclo[8.4.0.0^{2,7}]tetradeca-1(10),2(7),5,8-tetraen-13-yl 3-methylbutanoate] | 81.2% | 10.9% | –
Cc1cccc2c3c(ccc12)C1=C(C(=O)C3=O)C(C)CO1 (centres unmarked) [DIHYDROTANSHINONE I, 6,14-dimethyl-12-oxatetracyclo[8.7.0.0^{2,7}.0^{11,15}]heptadeca-1(10),2(7),3,5,8,11(15)-hexaene-16,17-dione] | 77.1% | 4.8% | –
Clc1ccc(COC(Cn2ccnc2)c2ccc(Cl)cc2Cl)cc1 (centres unmarked) [ECONAZOLE, 1-{2-[(4-chlorophenyl)methoxy]-2-(2,4-dichlorophenyl)ethyl}-1H-imidazole] | 100% | 2.4% | –
CCCCCCCC/C=C/CCCCCCCCOP(=O)([O-])OCC[N+](C)(C)C [ELAIDYLPHOSPHOCHOLINE, (9E)-octadec-9-en-1-yl [2-(trimethylazaniumyl)ethyl] phosphate] | 93.7% | 5% | –
C=CC(C)(O)CCC1C(=C)CCC2C(C)(CO)CCCC12C (stereo not drawn) [EPI(13)TORULOSOL, 5-[5-(hydroxymethyl)-5,8a-dimethyl-2-methylidene-decahydronaphthalen-1-yl]-3-methylpent-1-en-3-ol] | 86.1% | 14.5% | –
CC12CCC3C(CCC4CC(O)CCC43C)C1CCC2=O (centres unmarked) [EPIANDROSTERONE, 5-hydroxy-2,15-dimethyltetracyclo[8.7.0.0^{2,7}.0^{11,15}]heptadecan-14-one] | – | – | activity at 10 µM (3T3 fibroblast cells): 100%; activity at 10 µM [1]: 18.8%
CC(=O)OC1CC2C(C)(C)C(=O)C3OC3C2(C)C2CCC3(C)C(c4ccoc4)OC(=O)C4OC43C12C (centres unmarked) [EPOXYGEDUNIN, 7-(furan-3-yl)-1,8,12,17,17-pentamethyl-5,16-dioxo-3,6,14-trioxahexacyclo[9.9.0.0^{2,4}.0^{2,8}.0^{12,18}.0^{13,15}]icosan-20-yl acetate] | 73.4% | 4.4% | –
CC(C)C(C)/C=C/C(C)C1CCC2C3=CC=C4CC(O)CCC4(C)C3CCC21C (centres unmarked) [ERGOSTEROL, 14-[(3E)-5,6-dimethylhept-3-en-2-yl]-2,15-dimethyltetracyclo[8.7.0.0^{2,7}.0^{11,15}]heptadeca-7,9-dien-5-ol] | 99.6% | 6% | –
CCC(=O)O[C@H]1CC[C@H]2[C@@H]3CCc4cc(O)ccc4[C@H]3CC[C@]12C [ESTRADIOL PROPIONATE, (1S,10R,11S,14S,15S)-5-hydroxy-15-methyltetracyclo[8.7.0.0^{2,7}.0^{11,15}]heptadeca-2,4,6-trien-14-yl propanoate] | 100% | 20.3% | –
CCOc1ccc(Cc2nccc3cc(OCC)c(OCC)cc23)cc1OCC [ETHAVERINE, 1-[(3,4-diethoxyphenyl)methyl]-6,7-diethoxyisoquinoline] | 95.1% | 3.7% | –
CC(=O)OC1CCC2(C)C3=C(CCC2C1(C)C)C1(C)CCC(C(C)CCC=C(C)C)C1(C)CC3 (centres unmarked) [EUPHOL ACETATE, 2,6,6,11,15-pentamethyl-14-(6-methylhept-5-en-2-yl)tetracyclo[8.7.0.0^{2,7}.0^{11,15}]heptadec-1(10)-en-5-yl acetate] | 87.6% | 12% | –
N#Cc1nn(-c2c(Cl)cc(C(F)(F)F)cc2Cl)c(N)c1[S+]([O-])C(F)(F)F (centres unmarked) [FIPRONIL, 5-amino-1-[2,6-dichloro-4-(trifluoromethyl)phenyl]-4-(trifluoromethane)sulfinyl-1H-pyrazole-3-carbonitrile] | 100% | 3.7% | –

SMILES | activity at 10 µM (3T3 fibroblast cells; 10 uM, Table S2) | activity at 10 µM ([1]; 10 uM, Table S2) | also measured
O=c1[nH]c(=O)n(C2CC(O)C(CO)O2)cc1F (centres unmarked) [FLOXURIDINE, 5-fluoro-1-[4-hydroxy-5-(hydroxymethyl)oxolan-2-yl]-1,2,3,4-tetrahydropyrimidine-2,4-dione] | 86.2% | 2.6% | –
OCCN1CCN(CCCN2c3ccccc3Sc3ccc(C(F)(F)F)cc32)CC1 [FLUPHENAZINE, 2-(4-{3-[2-(trifluoromethyl)-10H-phenothiazin-10-yl]propyl}piperazin-1-yl)ethan-1-ol] | 100% | 2.2% | –
COc1cc2ccc(=O)oc2c(O)c1O [FRAXETIN, 7,8-dihydroxy-6-methoxy-2H-chromen-2-one] | 100% | 8.1% | –
O=c1c(-c2ccc(O)cc2)coc2cc(O)cc(O)c12 [GENISTEIN, 5,7-dihydroxy-3-(4-hydroxyphenyl)-4H-chromen-4-one] | 100% | 6.4% | –
O=c1c(O)c(-c2ccc(O)c(O)c2)oc2c(OC3OC(CO)C(O)C(O)C3O)c(O)cc(O)c12 (centres unmarked) [GOSSYPIN, 2-(3,4-dihydroxyphenyl)-3,5,7-trihydroxy-8-{[3,4,5-trihydroxy-6-(hydroxymethyl)oxan-2-yl]oxy}-4H-chromen-4-one] | 100% | 17.7% | –
Oc1cc2c(cc1O)C1c3ccc(O)c(O)c3OCC1(O)C2 (centres unmarked) [HAEMATOXYLIN, 8-oxatetracyclo[8.7.0.0^{2,7}.0^{12,17}]heptadeca-2,4,6,12,14,16-hexaene-5,6,10,14,15-pentol] | 100% | 3.7% | –
COc1ccc2c(c1)[nH]c1c(C)nccc12 [HARMINE, 7-methoxy-1-methyl-9H-pyrido[3,4-b]indole] | 87.2% | 7.5% | –
O=c1cc(-c2cc(O)c(O)c(O)c2)oc2cc(O)cc(O)c12 [HIERACIN, 5,7-dihydroxy-2-(3,4,5-trihydroxyphenyl)-4H-chromen-4-one] | 100% | 6.5% | –
Oc1ccc(O)cc1 [HYDROQUINONE, benzene-1,4-diol] | – | – | activity at 10 µM (3T3 fibroblast cells): 93.9%; activity at 10 µM [1]: 22.6%
CCN(CCO)CCCC(C)Nc1ccnc2cc(Cl)ccc12 (centres unmarked) [HYDROXYCHLOROQUINE SULFATE, 2-({4-[(7-chloroquinolin-4-yl)amino]pentyl}(ethyl)amino)ethan-1-ol; sulfuric acid] | – | – | activity at 10 µM (3T3 fibroblast cells; 10 uM, Table S1): 100%; activity at 10 µM ([1]; 10 uM, Table S1): 0.1%; pEC50 ([1]; Table S2, amastigotes): 5.33
CCCCCC(=O)O[C@]1(C(C)=O)CC[C@H]2C3CCC4=CC(=O)CCC4(C)[C@H]3CCC21C (stereo partly drawn) [HYDROXYPROGESTERONE CAPROATE, (1S,11S,14R)-14-acetyl-2,15-dimethyl-5-oxotetracyclo[8.7.0.0^{2,7}.0^{11,15}]heptadec-6-en-14-yl hexanoate] | 100% | 1.8% | pEC50 ([1]; Table S2, amastigotes): 5.00
O=c1c(-c2cc(O)c(O)c(O)c2)coc2cc(O)c(O)c(O)c12 [IRIGENOL, 5,6,7-trihydroxy-3-(3,4,5-trihydroxyphenyl)-4H-chromen-4-one] | 73.7% | 5.7% | –
CC(=O)N1CCN(c2ccc(OC[C@H]3CO[C@](Cn4ccnc4)(c4ccc(Cl)cc4Cl)O3)cc2)CC1 [KETOCONAZOLE, 1-[4-(4-{[(2R,4S)-2-(2,4-dichlorophenyl)-2-(1H-imidazol-1-ylmethyl)-1,3-dioxolan-4-yl]methoxy}phenyl)piperazin-1-yl]ethan-1-one] | 100% | 2.1% | pEC50 ([1]; Table S2, amastigotes): 9.52; pEC50 [1]: 9.00
C=CC(C)(O)CCC1C(=C)CC(O)C2C(C)(C)CCCC12C (centres unmarked) [LARIXOL, 4-(3-hydroxy-3-methylpent-4-en-1-yl)-4a,8,8-trimethyl-3-methylidene-decahydronaphthalen-1-ol] | 74% | 6.4% | –
CCN(CCCCOC(=O)c1ccc(OC)c(OC)c1)C(C)Cc1ccc(OC)cc1 (centres unmarked) [MEBEVERINE, 4-{ethyl[1-(4-methoxyphenyl)propan-2-yl]amino}butyl 3,4-dimethoxybenzoate] | 92.3% | 4.1% | –
CN1CCc2c(c3ccccc3n2Cc2ccccc2)C1.O=S(=O)(O)c1cccc2c(S(=O)(=O)O)cccc12 [MEBHYDROLIN NAPHTHALENESULFONATE, 5-benzyl-2-methyl-1H,2H,3H,4H,5H-pyrido[4,3-b]indole; naphthalene-1,5-disulfonic acid] | – | – | Mammalian (3T3) cell % growth at 10 uM (3T3 fibroblast cells; 10 uM, Table S2): 100%; T. cruzi % growth @ 10 uM (Amastigotes) ([1]; 10 uM, Table S2): 3.3%
